Laboratory results published in patent US20250345350A1, “TREATING PAIN ASSOCIATED WITH CENTRAL SENSITIZATION” (Medicon Pharmaceuticals, Inc., priority 2022, published 2025).
Like-named read-outs stand apart in the source and are kept apart here.

Experiments:
[1] = system: paclitaxel-induced pain associated with central sensitization in C57BL/6J mice; test: Mechanical allodynia (von Frey), paclitaxel-induced pain, topical PS 8% (Example 2); type: in vivo, mouse
From the text: (§1) Food and water were available ad libitum.
(§2) Paw withdrawn, licking or shaking were considered positive responses.

[2] = system: paclitaxel-induced CIPN in C57BL/6J mice; test: Thermal allodynia PWL (radiant heat), mouse model of CIPN, oral administration (Example 5); settings: day 16 of treatment, oral PS 50 mg/kg, sulindac 33 mg/kg
From the text: Group 1: paclitaxel plus vehicle (n=8) • 2. […] Group 3: paclitaxel pluse sulindac (n=8)
The animal is placed into a plastic box with an elevated glass floor. The beam of the lamp probe is focused on the paw plantar surface, until the animal withdraws the paw, and sensors in the device shut off the lamp. The thermal allodynia threshold is defined as the latency time until paw withdrawal (PWL) and expressed in seconds (sec) or thermal allodynia threshold.

[3] = PS to outer surface of the eyelid in a subject after LASIK (Example 22); type: in vivo; settings: topical PS to the outer surface of the eyelid, one subject
[4] = Safety of PS ointment applied to hind paws of mice; type: in vivo, mouse; settings: PS ointment thrice daily to the hind paws of mice for up to 22 days
From the text: This finding is in keeping with the known safety profile of PS.

[5] = system: vincristine-induced pain associated with central sensitization in C57BL/6J mice; test: Mechanical allodynia (von Frey), vincristine-induced pain, topical PS 8% (Example 2); type: in vivo, mouse
From the text: as §1
Protocol for the Treatment of Established Pain Associated with Central Sensitization with PS
as §2

[6] = system: paclitaxel-induced central sensitization in C57/BL mice; test: Paw withdrawal threshold (von Frey), paclitaxel model, topical PS (Example 1); settings: day 10, about 30 min after last application; PS 8% hydrogel topically to both hind paws 3 times a day for 10 days
Procedure: The paclitaxel was administered into all study groups once a day for 3 days.
The first doses were administered 2 days after the last administration of paclitaxel.
The study groups were as follows: • 1. Group 1: paclitaxel only (n=9) • 2. Group 2: paclitaxel plus vehicle (n=10) • 3.
In order to determine the outcome of the treatment, pain threshold responses were measured using the well-established method of von Frey filaments. […] The results of the PWT test are expressed as force applied (gm). […] The data is expressed as percent change from the respective baseline value.

[7] = Preliminary in vivo evidence, PS to the ocular surface, corneal neuropathic pain (Example 22); settings: topical PS to the ocular surface
[8] = Preliminary in vivo evidence, topical PS hydrogel, PTPN (Example 6)
[9] = system: chronic constriction injury-induced peripheral neuropathy in C57BL/6J mice; test: PWT (von Frey), PTPN model, oral administration (Examples 9 and 10); settings: day 6; PS orally three times a day for 6 days at 100 mg/kg
Procedure: Group 1: ligation only (i.e, surgical control with no treatment, n=9) • 2. Group 2: vehicle (n=9) • 3.
Mechanical allodynia was determined using the method of von Frey filaments in line with that performed in the earlier Examples. The PWT test was performed on day 6. The mechanical threshold, expressed as g, indicates the force of the von Frey filament to which the animal reacted.

[10] = system: chronic constriction injury-induced peripheral neuropathy in C57BL/6J mice; test: Thermal allodynia PWL, chronic constriction injury model of PTPN, topical (Example 7); type: in vivo, mouse; settings: PS 5% topical
[11] = system: paclitaxel-induced CIPN in C57BL/6J mice; test: PWT (von Frey), mouse model of CIPN, oral administration (Example 5); type: in vivo; settings: day 7; oral gavage three times a day for 7 days, PS 50 mg/kg, sulindac 33 mg/kg
From the text: CIPN was induced in mice with chemotherapeutic agents using established protocols (Carozzi et al, 2010; Currie et al, 2019; Eldridge et al, 2020). […] This dosing regimen of paclitaxel produces pain associated with CIPN with time courses that are similar to those of pain after paclitaxel administration in cancer patients.
Group 1: naive mice (i.e. no paclitaxel, n=8) • 2. Group 2: paclitaxel only (n=8) • 3. Group 3: paclitaxel plus vehicle (n=8) • 4. […] Group 5: paclitaxel plus sulindac (n=8)
The PWT test was performed on day 7.

[12] = Preliminary in vivo evidence, topical PS hydrogel, migraine pain (Example 12)
COX-2 = molecular target: T1, COX-2 (Homo sapiens, UniProt P35354); settings: background statement; cited from earlier work
T1 sequence (P35354 18-604): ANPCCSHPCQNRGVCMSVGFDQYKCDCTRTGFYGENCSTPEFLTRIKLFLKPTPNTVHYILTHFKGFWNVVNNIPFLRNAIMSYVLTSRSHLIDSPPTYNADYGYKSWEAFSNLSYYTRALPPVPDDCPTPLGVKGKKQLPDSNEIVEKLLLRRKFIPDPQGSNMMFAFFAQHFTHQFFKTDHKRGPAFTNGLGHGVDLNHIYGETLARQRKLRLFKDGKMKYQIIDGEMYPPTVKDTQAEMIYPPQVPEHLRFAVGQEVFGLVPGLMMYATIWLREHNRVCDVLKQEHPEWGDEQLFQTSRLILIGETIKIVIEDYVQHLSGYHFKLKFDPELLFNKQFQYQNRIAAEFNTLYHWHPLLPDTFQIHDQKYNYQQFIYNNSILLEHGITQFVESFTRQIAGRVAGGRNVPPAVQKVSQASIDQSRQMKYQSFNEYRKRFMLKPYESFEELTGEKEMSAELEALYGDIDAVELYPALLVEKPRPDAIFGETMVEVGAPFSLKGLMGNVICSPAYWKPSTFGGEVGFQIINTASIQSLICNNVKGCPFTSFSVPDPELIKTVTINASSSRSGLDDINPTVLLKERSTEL

[13] = system: chronic constriction injury-induced peripheral neuropathy in C57BL/6J mice; test: PWT (von Frey), chronic constriction injury model of PTPN, topical (Example 7); settings: day 14; PS 5% gel or sulindac 0.7% gel on left paw three times a day for 14 days; pregabalin once by oral gavage 1 h before
Procedure: Group 1: ligation only (i.e, surgical control with no treatment, n=5-7) • 2. Group 2: vehicle control (n=5-7) • 3. […] Group 4: 0.7% sulindac (n=5-7) • 5.
Briefly, for determining mechanical allodynia, pain threshold responses were measured using the well-established method of von Frey filaments in line with that performed in the earlier Examples. The PWT test was performed on day 14. The mechanical threshold, expressed as g, indicates the force of the von Frey filament to which the animal reacted.

[14] = Preliminary in vivo evidence, topical PS hydrogel, PHN (Example 19)
[15] = Pharmacokinetics and biodistribution of PS upon oral administration (Example 27); type: in vivo, rat; settings: rats, single oral dose of PS 250 mg/kg; for AUC(0-t) / Cmax / half-life: Sprague-Dawley, rat; for AUC(0-t): read-out: AUC0-24 h; for Cmax: read-out: Cmax, Mean ± SEM
Procedure: Approximately 800 μL of blood were collected through cardiac puncture and immediately centrifuged.
Tissue samples were harvested using separate dissection instruments for each tissue sample to avoid cross contamination, and snap frozen. The levels of the test drug were determined by HPLC.
As previously described (Wen et al, 2019), each plasma sample was mixed with double volume of acetonitrile and centrifuged at 13,200 rpm for 15 min. Tissue samples were weighed, ddH2O (100-300 μL, depending on tissue weight) was added, and they were homogenized. Following addition of acetonitrile (twice the volume of the homogenate), the mixture was sonicated for 10 min, centrifuged at 13,200 rpm for 15 min, and analyzed by HPLC, as reported (Wen et al, 2019).
Briefly, the HPLC system consisted of a Waters Alliance 2695 Separations Module (Milford, MA, USA) equipped with a Waters 2998 photodiode array detector (328 nm) and a Thermo Hypersil BDS C18 column (150×4.6 mm, particle size 3 pm). The mobile phase consisted of a gradient between solvent A (formic acid, CH3CN, H2O (0.1:4.9:95 v/v/v)) and solvent B (CH3CN) at a flow rate of 1 mL-min−1 at 30° C. We applied gradient elution from 30 to 100% solvent B from 0-6 min, and it was maintained at 100% solvent B until 8 min.

COX-1 = COX-1 (Homo sapiens, UniProt P23219); settings: background statement; cited from earlier work
Chain of COX-1 (P23219 24-599): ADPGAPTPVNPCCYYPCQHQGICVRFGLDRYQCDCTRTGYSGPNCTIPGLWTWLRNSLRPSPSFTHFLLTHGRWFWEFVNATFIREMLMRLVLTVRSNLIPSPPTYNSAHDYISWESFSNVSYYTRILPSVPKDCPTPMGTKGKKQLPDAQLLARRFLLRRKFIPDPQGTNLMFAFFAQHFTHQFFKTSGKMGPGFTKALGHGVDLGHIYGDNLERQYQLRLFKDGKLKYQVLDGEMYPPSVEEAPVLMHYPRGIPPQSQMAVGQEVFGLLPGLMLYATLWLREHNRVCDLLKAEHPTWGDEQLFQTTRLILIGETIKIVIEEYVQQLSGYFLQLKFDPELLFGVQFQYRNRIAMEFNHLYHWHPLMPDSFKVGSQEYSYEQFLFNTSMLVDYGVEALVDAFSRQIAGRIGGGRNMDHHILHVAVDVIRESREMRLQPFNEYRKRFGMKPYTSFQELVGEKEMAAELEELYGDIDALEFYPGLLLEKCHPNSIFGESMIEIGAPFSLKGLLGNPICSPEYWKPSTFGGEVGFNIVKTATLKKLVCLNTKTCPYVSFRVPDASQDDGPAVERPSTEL

CCOP(=O)(OCC)OCCCCOC(=O)CC1=C(C)/C(=C/c2ccc([S+](C)[O-])cc2)c2ccc(F)cc21 (stereo not drawn) [PS, phosphosulindac]
mechanical allodynia score, mean±SEM ([1]; day 0 (initiation of treatment), paclitaxel-induced pain): 0.79 ± 0.08 g
mechanical allodynia score, mean±SEM ([1]; day 5, PS 8% ointment 3x/day to hind paws): 1.17 ± 0.07 g
mechanical allodynia score, mean±SEM ([1]; day 16, PS 8% ointment 3x/day to hind paws): 2.49 ± 0.18 g
PWL, sec Mean ± SEM [2]: 10.78 ± 1.1 s
effect on chronic pain after LASIK [3]: dramatically reduced chronic pain
topical or systemic side effects [4]: no topical or systemic side effects
increase of allodynia score compared to day 0 ([5]; PS 8% ointment 3x/day for 16 days): 114%
mechanical allodynia score, mean±SEM ([5]; day 16): 1.5 ± 0.09 g
PWT, % baseline Mean ± SEM [6]: 102.55 ± 4.92 % baseline
analgesic effect on corneal neuropathic pain [7]: striking analgesic effect
analgesic effect on neuropathic pain associated with PTPN [8]: striking analgesic effect
PWT, g Mean ± SEM [9]: 1.63 ± 0.38 g
PWL, sec Mean ± SEM [10]: 9.1 ± 2.9 s
PWT, g Mean ± SEM [11]: 0.99 ± 0.13 g
analgesic effect on migraine pain [12]: striking analgesic effect
inhibition of COX-2 (COX-2): does not inhibit
PWT, g Mean ± SEM [13]: 1.30 ± 0.15 g
analgesic effect on neuropathic pain associated with PHN [14]: striking analgesic effect
AUC(0-t) ([15]; cerebellum): 0.2 µM·h
Cmax ([15]; cerebellum): 300 ± 70 nM
AUC(0-t) ([15]; medulla): 0.3 µM·h
Cmax ([15]; medulla): 500 ± 100 nM
half-life ([15]; stomach): 3.3 h
AUC(0-t) ([15]; stomach): 1280 µM·h
Cmax ([15]; stomach): 661000 ± 6500 nM
half-life ([15]; vagus nerve): 3.3 h
AUC(0-t) ([15]; vagus nerve): 1.7 µM·h
Cmax ([15]; vagus nerve): 1200 ± 200 nM
detection in the systemic circulation [15]: No PS was detected
inhibition of COX-1 (COX-1): does not inhibit
